This note sets out measurements from US10369123B2, “Perk activator for the treatment of neurodegenerative diseases” (DEUTSCHES ZENTRUM FÜR NEURODEGENERATIVE ERKRANKUNGEN E.V. …, priority 2014, dated 2019).

Entries after “also recorded” stand apart in the source; their conditions may differ. Where two headings read alike, the source gives them in different places.

In series [1] the test system is wild type and P301S tau mice. It counts as in vivo, mouse. The method, then: (§1) All animal work was conducted either on CR57BL/6 mice, obtained from Charles River Laboratories, Wilmington, Mass., USA, or on homozygous transgenic mice overexpressing human tau with the P301S mutation on a C57BL/6 background, originally developed by Michel Goedert (Xu et al. 2014), obtained by own breeding. Animals were kept at 23±1° C. under standard 12 h light-dark cycle with free access to food and water. They were handled according to the EU Council Directive 2010/63/EU, the Guide for the Care and Use of Laboratory Animals (National Research Council 2011) and the guidelines of the local institutional committee. The experiments were authorized by the local authority “Regierung von Oberbayern” under application number 55.2-1-54-2532-165-13. […]
(§2) For the efficacy trial in the early disease stage (Xu et al. 2014), P301S mice (n=8 per group) and wild type littermates (n=9 per group) received once daily i.p. injections of 2 mg/kg CCT020312 or equivalent volumes of saline from 9 to 14 weeks of age; they were analyzed with the Morris Water Maze in the 15th week of age.
For the efficacy trial in the late disease stage (Xu et al. 2014), P301S mice and wild type littermates received once daily i.p. injections of 2 mg/kg CCT020312 or saline from 17 to 22 weeks of age (n=12 for CCT020312 treated P301S mice, n=9 for other groups); they were analyzed with the Rotarod test in the 23rd week of age.

The subject of series [2] is 4R-tau and 3R-tau isoforms. The series is described as follows: Western blot of 3R-/4R-tau isoforms, annonacin model. It counts as cell-based, human. As to conditions: annonacin 25 nM + PERK activator, 48 h. The method, then: Nunc™ Nunclon™ Delta 6-well (for protein and mRNA) or 48-well (for cell assays) plates (Thermo Fisher Scientific, Waltham, Mass., USA) were coated with 100 μg/ml poly-L-lysine (Sigma-Aldrich, St. Louis, Mo., USA) and 5 μg/ml fibronectin (Sigma-Aldrich). LUHMES (Lund Human Mesencephalic) cells, derived from human embryonic ventral mesencephalic cells by conditional immortalization (Tet-off v-myc over-expression) were seeded out in a concentration of 130,000 cells/cm^2 to achieve a confluence of 50%. They were then differentiated for 8 days in a medium of DMEM/F12 (Sigma-Aldrich), 1 μg/ml tetracycline, […] and 490 μg/ml dbcAMP into post-mitotic neurons with a dopaminergic phenotype (Lotharius et al. 2005). […]
Protein was extracted by scraping the cells from the culture plate with Mammalian Protein Extraction Reagent (M-PER, Thermo Fisher Scientific) and 1× cOmplete Protease Inhibitor Cocktail Tablets (Hoffmann-La Roche, Basel, Switzerland) and 1× PhosSTOP Phosphatase Inhibitor Cocktail Tablets (Hoffmann-La Roche). […] Protein concentrations were determined using the BCA kit (Thermo Fisher Scientific) by heating the samples at 60° C. for 30 min and measuring the absorption on the NanoDrop 2000c Spectrophotometer (Thermo Fisher Scientific). […]
(In general: A western blot detects proteins with antibodies after separation by electrophoresis.)

The subject of series [3] is P301S tau transgenic mice. The series is described as follows: Morris water maze. As to conditions: 2 mg/kg i.p. once daily, tested at 15 weeks of age. The class given is in vivo, mouse. The method, then: as §1, §2
To analyze spatial learning and memory, the Morris water maze test was performed at 15 weeks of age (n=8 per group) in a cylindrical water basin (diameter 120 cm) filled with water with a depth of 31 cm. […] Tracks of training and probe trial were recorded with the computerized Viewer2 system (Biobserve, Mannheim, Germany).

For the molecule `CCN(CC)CCC(=O)N1N=C(c2c(-c3ccccc3)c3cc(Br)ccc3[nH]c2=O)CC1c1ccc(Br)cc1` (centres unmarked) [CCT020312, 6-bromo-3-[5-(4-bromo-phenyl)-1-(3-diethylamino-propionyl)-4,5-dihydro-1H-pyrazol-3-yl]-4-phenyl-1H-quinolin-2-one], the “death or obvious signs of sickness during treatment” value was “no CCT020312-treated wild type (n=9) and P301S tau mouse (n=12) died during the treatment period or showed any obvious signs of sickness” in series [1] (aged wild type and P301S tau mice, 2 mg/kg once daily for 6 weeks, until 23 weeks of age); “No CCT020312-treated mouse of the wild type group (N=8) and of the P301S tau group (N=8) died during the treatment period or showed any obvious signs of sickness” in series [1] (young wild type and P301S tau mice, 2 mg/kg for 6 weeks). The 4R-tau protein amount entry in series [2] is listed as “reduced”. For the same molecule, the “latency to find the hidden platform / learning curve” value in series [3] (P301S tau mice, vs saline) is given as “significantly improved; also recorded: steeper learning curve”; in series [3] (wild type mice), “did not significantly affect; also recorded: did not change the learning curve”.
